Data reported in the NIST ThermoML archive (doi:10.1016/j.fluid.2009.01.004).
Numbers after ± are expanded uncertainties.

Assay: xn = mol fraction of the nth substance listed
Details: 101 kPa, Liquid, Capillary tube (Ostwald / Ubbelohde) method

CCN(CC)CC [triethylamine] + O
viscosity [mPa·s]
Details | x1 = 0.019 | x1 = 0.042 | x1 = 0.077 | x1 = 0.106 | x1 = 0.151 | x1 = 0.21 | x1 = 0.293 | x1 = 0.415 | x1 = 0.615 | x1 = 1
283.15 K | 2.52 ± 0.018 | 4.075 ± 0.029 | 5.547 ± 0.038 | 6.629 ± 0.043 | 6.651 ± 0.043 | 5.635 ± 0.038 | 4.242 ± 0.03 | 2.821 ± 0.021 | 1.84 ± 0.014 | 0.4275 ± 0.004
286.15 K | 2.211 ± 0.016 | 3.512 ± 0.025 | 4.761 ± 0.034 | 5.476 ± 0.037 | 5.497 ± 0.038 | 4.801 ± 0.034 | 3.679 ± 0.026 | 2.511 ± 0.018 | 1.531 ± 0.012 | 0.414 ± 0.0039
288.15 K | 2.033 ± 0.015 | 3.199 ± 0.023 | 4.242 ± 0.03 | 4.748 ± 0.033 | 4.769 ± 0.034 | 4.302 ± 0.03 | 3.366 ± 0.024 | 2.333 ± 0.017 | 1.354 ± 0.01 | 0.4051 ± 0.0038
290.15 K | 1.875 ± 0.014 | 2.948 ± 0.021 | 3.764 ± 0.027 | 4.07 ± 0.029 | 4.092 ± 0.029 | 3.85 ± 0.028 | 3.115 ± 0.023 | 2.175 ± 0.016 | 1.195 ± 0.0094 | 0.3961 ± 0.0038
291.15 K | 1.804 ± 0.014 | 2.846 ± 0.021 | 3.53 ± 0.025 | 3.751 ± 0.027 | 3.773 ± 0.027 | 3.644 ± 0.026 | 3.013 ± 0.022 | 2.104 ± 0.016 | 1.124 ± 0.01 | 0.3917 ± 0.0037
291.35 K | 1.792 ± 0.013 | 2.831 ± 0.021 | 3.482 ± 0.025 | 3.677 ± 0.026 | 3.699 ± 0.026 | 3.611 ± 0.026 | 2.998 ± 0.022 | 2.093 ± 0.016 | 1.113 ± 0.01 | 0.391 ± 0.0037

O [water] + CCN(CC)CC
x2 = 0
Details | viscosity [mPa·s]
283.15 K | 1.306 ± 0.01
286.15 K | 1.206 ± 0.0094
288.15 K | 1.144 ± 0.009
290.15 K | 1.085 ± 0.0086
291.15 K | 1.058 ± 0.0084
291.35 K | 1.053 ± 0.0083
